Test system: post-operative dental pain
Experiment: Clinical trial in patients with post-operative dental pain (model for acute pain), randomized double-blind parallel-group
Assay type: in vivo
Conditions: single dose, ibuprofen 400 mg, caffeine 100 mg or fixed combination
Procedure: Male and female patients between the ages of 18 and 55 years, scheduled for the extraction of 3 to 4 unsound wisdom teeth, with at least 2 extracted molars were recruited; the baseline of dental pain intensity must be at least moderate on a verbal evaluation scale and at least 5 on a numerical evaluation scale ranging from 0 to 10.
The pain intensity (PI) was evaluated in a diary before administration and at 0.25, 0.5, 0.75, 1, 1.5, 2, 3, 4, 5, 6, 7 and 8 hours after the first dose of the study medication using an 11-point numerical rating scale (NPRS) from 0=“no pain” to 10=“worst possible pain”.
The pain relief (PAR) beginning from pain onset was evaluated in a patient diary using a 5-point rating scale (VRS) (0=no pain relief; 1=a little pain relief; 2=some pain relief; 3=much pain relief; 4=complete pain relief) at the same time points as for the PI evaluation.
As soon as a patient needed an emergency medication or a second dose of the medication within less than 8 hours, PI and PAR were evaluated before the emergency medication or second dose was administered.
The time-weighted sum of pain relief (PAR) and the pain intensity difference (PID) relative to baseline between 0 and 8 hours is determined as follows:
Higher values of the SPRID0-8 h likewise indicate greater benefit for the patient.

CC(C)Cc1ccc(C(C)C(=O)O)cc1 (racemic) [Ibuprofen, (+/−) 2-(p-isobutylphenyl)-propionic acid]
Median duration of action (Kaplan-Meyer analysis): 7.1 h
Adjusted Mean SPRID0-8 h value (time-weighted sum of pain relief and pain intensity difference from 0 to 8 hours) (study stage 1, primary endpoint, higher = greater benefit): 40.165
Adjusted Mean SPRID0-2 h value (time-weighted sum of PAR and PID from 0 to 2 hours) (study stage 1, secondary endpoint): 6.990

From patent US20210121577A1, “FILM COATED TABLET FOR THE TREATMENT OF ACUTE PAIN” (SANOFI-AVENTIS DEUTSCHLAND GMBH, priority 2014, published 2021)
